Data from patent publication US20050187288A1, “Beta-lapachone and methods of treating cancer” (priority 2004, published 2005).
Read-outs that look alike come from different tables or passages of the source.

Columns and labels:
[1] = Pharmacokinetic data from toxicology study in dogs, one-hour intravenous infusion; assay type: in vivo; conditions: both sexes, dog
Experimental: In this study, two dogs (one male, one female) were administered β-lapachone intravenously in the HPBCD formulation over one hour. The animals received escalating doses of 5, 15, 30 and 45 mg/kg, with three to four days between doses. The mean response of the two dogs is shown at each dose level. […] Doses up to and including 30 mg/kg produced no toxicity.

[2] = tested on: E2F-1; test: E2F-1 protein expression by Western blot in Paca-2 cells; assay type: cell-based, human; conditions: 0.5 hours exposure
Experimental: Cells were harvested and whole cell lysates were prepared and resolved by SDS/PAGE, then Western blots were prepared using E2F-1 antibody obtained from Santa Cruz Biotechnology (Santa Cruz, Calif.) and an enhanced chemiluminescence assay system (Amersham Pharmacia).

[3] = tested on: human breast cancer cells (MCF-7); test: Colony formation assay, cancer vs normal breast cells; assay type: cell-based; conditions: MCF-7, 4 h treatment
Description: After 10-20 days, cells were fixed and stained with modified Wright-Giemsa stain.

[4] = Study 3A: neuropharmacological profile in rats
Experimental: In Study No. 3A, four groups of ten male Sprague-Dawley rats were dosed with a single 1 hour intravenous infusion via the tail vein at doses of 0 (vehicle), 5, 25, and 60 mg/kg as shown in Table 12.
Following dosing, animals were placed in a fixed environment consisting of a Plexiglas square, fitted with a lid and placed on absorbent paper to detect excretions.
Body temperatures were taken on all animals at 15 minutes following dose administration.

[5] = in vivo
[6] = tested on: G480 lung cancer cells; test: Colony formation assay, single agents and combination; assay type: cell-based
Description: Control plates received the same volume of DMSO alone. […] Treated wells were presented as percentage of control. Data were presented as an average (+SEM) from three independent experiments.

[7] = tested on: ASPC-1; test: Colony formation assay, combination with Taxol; assay type: cell-based, human; conditions: β-Lapachone 4 μM, Taxol 0.2 μM, 4 hours
Experimental: Control wells were treated with equivalent volumes of DMSO. After 4 hours cells were rinsed and fresh medium is added. Cultures were observed daily for 10-20 days and then were fixed and stained. […] DNA laddering formation and annexin staining indicate that cell death is due to apoptosis.

[8] = tested on: MCF-7; conditions: human, 4 h
Experimental: (§1) Control plates received the same volume of DMSO alone. After a 4 hour exposure the drug was carefully removed, and drug-free medium could be added. […] Colonies of greater than 50 cells were scored as survivors. Cells were maintained at 37° C. in 5% CO2 in complete humidity.

[9] = tested on: PC-3; conditions: human, 4 h
Experimental: as §1

[10] = tested on: human Panc-1 pancreatic cancer cells; assay type: in vivo, mice
Experimental: The animals were randomized into three groups. […] Mean tumor volume was then analyzed.

[11] = tested on: 60 cancer cell lines; test: NCI in vitro screen of 60 cancer cell lines, sulforhodamine B assay; assay type: cell-based; conditions: Homo sapiens, 60 cell, read-out: LC50 (log10 molar concentration causing 50% lethality), mean across all cells (converted)
Experimental: The NCI screen includes cell lines isolated from leukemia, non-small cell lung cancer (NSCLC), colon, […] (CNS), melanoma, ovarian, renal, prostate and breast cancer tissues.
The NCI assays were performed under standardized conditions and use the sulforhodamine B assay as the endpoint. The NCI set of 60 lines included nine colon cancer cell lines (COLO 205, DLD-1, HCC-2998, HCT-116, HCT-15, HT29, KM12, KM20L2, and SW-620).
The NCI assays were performed under standardized conditions and use the sulforhodamine B assay as the endpoint. The NCI set of 60 lines included twelve non-small cell lung cancer cell lines (A549, EKVX, HOP-18, HOP-19, HOP-62, HOP-92, NCI-H226, NCI-H23, NCI-H322M, NCI-H460, NCI-H522, and LXFL 529), and three small cell lung cancer cell lines (DMS 114, DMS 273, AND SHP-77).

[12] = tested on: DU145 human prostate cancer; test: Human prostate cancer xenograft model; assay type: in vivo, mice
Experimental: Tumors were measured throughout treatment and the post-treatment observation period. […] Tumor nodules were measured during the treatment period (Days 21-43) and at the end of observation (Day 56). Dose-related inhibition of tumor growth is seen, with little tumor growth following completion of treatment. […] Tumor nodules were measured pre-treatment (“Pre-Tx”), at the end of the 30-day treatment period (“Post-Tx”) and at the conclusion of the post treatment observation period 14 days following termination of treatment (“Post-Exp't”).

[13] = tested on: DU-145; conditions: human, 4 h
Experimental: as §1

[14] = tested on: DU-145; test: cells; conditions: Homo sapiens, DU-145, read-out: LC50 (Replicate Results), DU-145, 4 hour exposure, colonies after 14-21 days
Experimental: as §1

[15] = tested on: HCT-116; test: cells; conditions: Homo sapiens, HCT-116, read-out: LC50 (Replicate Results), HCT-116, 4 hour exposure, colonies after 14-21 days
Experimental: as §1
Control plates received the same volume of DMSO alone. After a 4 hour exposure the drug was carefully removed, and drug-free medium was added. […] Colonies of greater than 50 cells were scored as survivors. Cells were maintained at 37° C. in 5% CO2 in complete humidity. Each “Replicate Result” represents the result of a separate experiment.

[16] = tested on: SK-MEL-28; conditions: human, 4 h
Experimental: as §1

[17] = tested on: SK-OV-3; test: cells; conditions: Homo sapiens, SK-OV-3, read-out: LC50 (Replicate Results), SK-OV-3, 4 hour exposure, colonies after 14-21 days
Experimental: as §1

[18] = tested on: E2F1; test: E2F1 induction; assay type: cell-based, human; set-up: key: “+” symbol represents overexpression of E2F1 relative to a control
[19] = 4 μM for 4 hours, vs carrier alone

CC1(C)CCC2=C(O1)c1ccccc1C(=O)C2=O [β-lapachone, 3,4-dihydro-2,2-dimethyl-2H-naphtho [1,2-b]pyran-5,6-dione]
AUC ([1]; in vivo, 5 mg/kg): 13600 ng·h/mL
half-life ([1]; plasma, intravenous, across the dose range, read-out: terminal half-life (converted)): ~16 h
Cmax ([1]; plasma, iv, 5 mg/kg, 60 min infusion): 750 ng/mL
AUC ([1]; plasma, iv, 5 mg/kg, 60 min infusion, mean of two dogs, read-out: AUC): 13600 ng·h/mL
half-life ([1]; plasma, iv, 5 mg/kg, 60 min infusion, read-out: T1/2): ~16 h
Cmax ([1]; plasma, iv, 15 mg/kg, 60 min infusion): 1150 ng/mL
AUC ([1]; plasma, iv, 15 mg/kg, 60 min infusion, mean of two dogs, read-out: AUC): 20200 ng·h/mL
half-life ([1]; plasma, iv, 15 mg/kg, 60 min infusion, read-out: T1/2): ~16 h
Cmax ([1]; plasma, iv, 30 mg/kg, 60 min infusion): 1480 ng/mL
AUC ([1]; plasma, iv, 30 mg/kg, 60 min infusion, mean of two dogs, read-out: AUC): 26000 ng·h/mL
half-life ([1]; plasma, iv, 30 mg/kg, 60 min infusion, read-out: T1/2): ~16 h
lowest concentration tested, at which E2F-1 protein is induced [2]: 0.5 µM
concentrations giving essentially complete elimination of colonies [3]: ≥ 24 µM
animals that died during the infusion ([4]; 60 mg/kg at 6 mg/ml): Five of the ten animals
mean body temperature ([4]; 60 mg/kg, 15-minutes post dosing): 34.6 °C
NOEL ([4]; single intravenous dose, male Sprague Dawley rats): 25 mg/kg
doses without significant toxicity ([5]; Sprague-Dawley (Hsd:SD) rats, Beagle dogs, rat and dog, iv, 4 weeks): less than 270 mg/m^2
bone marrow suppression, gastrointestinal toxicity, alopecia [5]: no evidence of bone marrow suppression, gastrointestinal toxicity or alopecia
major organ toxicity (myelosuppression, hepatic, renal, neurotoxicity, cardiotoxicity) [5]: No evidence of major organ toxicity
cell death [6, 19]: 68%
survival of cells [6, 19]: 32%
Colonies (percent control) ([6]; G480, β-lapachone 4 μM, 4 hours, average (SEM) of three experiments): 32 (0.3) percent control
Colonies, Percentage of control [7]: 45 (1.9) Percentage of control
CC50 [8]: 1560 nM
CC50 [9]: 2340 nM
mean tumor volume ([10]; 40 and 60 mg/kg IP every three days, 5 treatments): reduced the mean tumor volume
toxicity ([10]; mouse, in vivo): No sign of significant toxicity
CC50 [11]: 8510 nM
tumor growth ([12]; 100 mg/kg in Lipiodol IP q3d, 30-day treatment): greater suppression of tumor growth
tumor growth ([12]; 25 and 50 mg/kg in Lipiodol IP q3d): inhibited tumor growth in a dose-dependent manner
CC50 [13]: 1210 nM
CC50 [14]: 1100 nM
CC50 [15]: 2290 nM
CC50 [16]: 2630 nM
CC50 [17]: 1180 nM
E2F1 Induction ([18]; Colon HT-29): +
E2F1 Induction ([18]; Colon SW480): +
E2F1 Induction ([18]; Pancreas PANC1): +
